Experimental data as given in ChEMBL document CHEMBL1201862, “PubChem BioAssay data set” (2004).
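These data come from cells grown in 96-well plates and exposed to compound for 48 hours at five concentrations. The concentration for 50% growth inhibition is given as GI50.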 Calls of active or inactive are those of the source. Rule as the data show it: active = GI50 up to about 1.1 µM and inactive = higher.

Experiments:
Assay in all cases: NCI-60 cell line screen, 48 h
HOP-92 = system: HOP-92
UO-31 = system: UO-31
EKVX = system: EKVX
NCI-H460 = system: NCI-H460
LOX IMVI = system: LOX IMVI
SK-MEL-28 = system: SK-MEL-28
M14 = system: M14
KM12 = system: KM12
ACHN = system: ACHN
OVCAR-8 = system: OVCAR-8
NCI/ADR-RES = system: NCI/ADR-RES
UACC-257 = system: UACC-257
OVCAR-5 = system: OVCAR-5
HCT-15 = system: HCT-15
HOP-62 = system: HOP-62
MDA-N = system: MDA-N
SN12C = system: SN12C
SK-MEL-5 = system: SK-MEL-5
T47D = system: T47D
SF-268 = system: SF-268

Structure (SMILES)	GI50 (HOP-92)	GI50 (UO-31)	GI50 (EKVX)	GI50 (NCI-H460)	GI50 (LOX IMVI)	GI50 (SK-MEL-28)	GI50 (M14)	GI50 (KM12)	GI50 (ACHN)	GI50 (OVCAR-8)	GI50 (NCI/ADR-RES)	GI50 (UACC-257)	GI50 (OVCAR-5)	GI50 (HCT-15)	GI50 (HOP-62)	GI50 (MDA-N)	GI50 (SN12C)	GI50 (SK-MEL-5)	GI50 (T47D)	GI50 (SF-268)
CCCC(=O)O[C@H]1C=C2C[C@@]34SS[C@]5(CC6=C[C@H](OC(C)=O)[C@@H]7O[C@@H]7[C@H]6N5C3=O)C(=O)N4[C@@H]2[C@H]2O[C@H]21	0.02 µM (active)	0.059 µM (active)	0.0178 µM (active)	0.0218 µM (active)	0.0208 µM (active)	0.0251 µM (active)	0.0129 µM (active)	0.184 µM (active)	0.0186 µM (active)	0.00644 µM (active)	0.0128 µM (active)	0.0181 µM (active)	0.0112 µM (active)	0.0224 µM	0.01 µM (active)	0.00817 µM (active)	0.00567 µM (active)	0.12 µM (active)	0.0256 µM (active)	0.00775 µM (active)
CN1CCN(Cc2nc3cccc4c3c([n+]2[O-])-c2ccccc2-4)CC1	36 µM (inactive)	20 µM (inactive)	31.4 µM (inactive)	17.8 µM (inactive)	16.7 µM (inactive)	31.7 µM (inactive)	23.2 µM (inactive)	27.4 µM (inactive)	12.2 µM (inactive)	12.9 µM (inactive)	10.6 µM (inactive)	24.4 µM (inactive)	> 34.2 µM (inactive)	29 µM	30 µM (inactive)	12.6 µM (inactive)	11.7 µM (inactive)	19.1 µM (inactive)	29.3 µM (inactive)	17.9 µM (inactive)
C#CCOC(=O)C(=[N+]=[N-])C(=O)CC(C)C	> 10 µM (inactive)	> 10 µM (inactive)	> 10 µM (inactive)	> 10 µM (inactive)	> 10 µM (inactive)	> 10 µM (inactive)	> 10 µM (inactive)	> 10 µM (inactive)	> 10 µM (inactive)	> 10 µM (inactive)	> 10 µM (inactive)	> 10 µM (inactive)	> 10 µM (inactive)	> 10 µM	> 10 µM (inactive)	> 10 µM (inactive)	> 10 µM (inactive)	> 10 µM (inactive)	> 10 µM (inactive)	> 10 µM (inactive)
